Laboratory results taken from article PMC4776319 (Water research, 2015).
Like-named read-outs stand apart in the source and are kept apart here. Each block holds one molecule with its values, some of them ahead of it.

What was measured:
[1] = biological target: T1, progesterone receptor (PR) (Homo sapiens, UniProt P06401); experiment: PR-CALUX progestagenic effects; type: cell-based; details: reference chemical
T1 sequence (P06401 1-933): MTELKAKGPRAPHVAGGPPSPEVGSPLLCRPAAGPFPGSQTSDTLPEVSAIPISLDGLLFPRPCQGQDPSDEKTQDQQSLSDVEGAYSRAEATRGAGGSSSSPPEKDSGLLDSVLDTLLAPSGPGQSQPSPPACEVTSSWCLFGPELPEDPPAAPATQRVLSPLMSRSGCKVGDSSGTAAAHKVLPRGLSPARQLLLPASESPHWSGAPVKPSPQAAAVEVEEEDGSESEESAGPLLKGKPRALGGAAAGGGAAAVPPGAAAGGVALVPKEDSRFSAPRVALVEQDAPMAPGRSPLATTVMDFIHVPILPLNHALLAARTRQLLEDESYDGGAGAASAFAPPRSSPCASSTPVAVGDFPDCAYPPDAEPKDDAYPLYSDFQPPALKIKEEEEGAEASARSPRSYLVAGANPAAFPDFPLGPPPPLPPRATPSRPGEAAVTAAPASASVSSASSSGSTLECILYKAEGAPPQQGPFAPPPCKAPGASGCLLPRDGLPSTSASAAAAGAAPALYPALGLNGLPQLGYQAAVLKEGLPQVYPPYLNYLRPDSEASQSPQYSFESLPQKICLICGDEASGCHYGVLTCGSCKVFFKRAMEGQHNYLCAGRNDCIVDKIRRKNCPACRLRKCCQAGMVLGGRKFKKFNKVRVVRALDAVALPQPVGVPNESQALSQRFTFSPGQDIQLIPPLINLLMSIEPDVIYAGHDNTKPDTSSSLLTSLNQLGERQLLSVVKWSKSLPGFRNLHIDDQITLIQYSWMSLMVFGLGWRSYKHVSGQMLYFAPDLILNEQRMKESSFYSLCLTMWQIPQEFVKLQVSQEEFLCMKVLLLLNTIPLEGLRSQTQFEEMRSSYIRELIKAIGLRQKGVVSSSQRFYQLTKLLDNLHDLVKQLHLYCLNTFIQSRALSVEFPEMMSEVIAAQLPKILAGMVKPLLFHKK

[2] = system: thyroid activity (cell proliferation); experiment: T-SCREEN cell proliferation assay, thyroid effects; type: cell-based
[3] = system: thyroid activity (cell proliferation); details: read-out: EC50 value in literature; ref Gutleb et al., 2005; cited from earlier work
Jurkat cell line = experiment: Jurkat E6-1 osmotic stress assay; type: cell-based; details: reference chemical
[4] = system: arylhydrocarbon receptor (AhR); details: read-out: EC50 value in literature; ref Macova et al., 2010; cited from earlier work
[5] = system: arylhydrocarbon receptor (AhR); experiment: AhR CAFLUX; type: cell-based; details: reference chemical
Nrf2-MDA-MB cells [6] = experiment: cells; type: cell-based, human
Nrf2-Keap-ARE32 pathway = details: read-out: EC50 value in literature; ref Escher et al., 2012; cited from earlier work
Nrf2-MDA-MB cells [7] = details: read-out: EC50 value in literature; ref Escher et al., 2012; cited from earlier work
algae photosynthesis [8] = details: read-out: EC50 value in literature, cited from earlier work
algae growth [9] = experiment: Algae growth inhibition; type: cell-based
algae photosynthesis [10] = experiment: I-PAM algae photosynthesis inhibition; type: cell-based
algae growth [11] = details: read-out: EC50 value in literature; ref Escher et al., 2008a; cited from earlier work
[12] = biological target: T1, progesterone receptor (PR); experiment: PR-CALUX-Anta; type: cell-based; details: antagonist mode, 20% suppression
[13] = biological target: T2, peroxisome proliferator-activated receptor (PPARγ) (Homo sapiens, UniProt P37231); details: read-out: EC50 value in literature; antagonist mode; ref Invitrogen, 2007b; cited from earlier work
T2 sequence (P37231 238-505 limits assumed): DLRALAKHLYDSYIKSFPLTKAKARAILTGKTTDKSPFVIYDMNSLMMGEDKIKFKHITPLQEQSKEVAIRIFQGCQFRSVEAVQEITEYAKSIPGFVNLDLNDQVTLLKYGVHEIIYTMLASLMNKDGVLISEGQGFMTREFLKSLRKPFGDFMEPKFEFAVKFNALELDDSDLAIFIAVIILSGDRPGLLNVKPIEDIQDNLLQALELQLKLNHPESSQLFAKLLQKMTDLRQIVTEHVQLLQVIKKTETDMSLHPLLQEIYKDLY

[14] = biological target: T2, peroxisome proliferator-activated receptor (PPARγ); experiment: PPARγ-GeneBLAzer-Anta; type: cell-based; details: antagonist mode
Caco-2 cells = experiment: Caco-2 NRU cytotoxicity; type: cell-based, human; details: carrier solvent as positive control
[15] = system: neuroblastoma cells (SK-N-SH)
[16] = biological target: T3, glucocorticoid receptor (GR) (Homo sapiens, UniProt P04150); experiment: GR-Switchgear; type: cell-based; details: reference chemical
T3 sequence (P04150 1-777): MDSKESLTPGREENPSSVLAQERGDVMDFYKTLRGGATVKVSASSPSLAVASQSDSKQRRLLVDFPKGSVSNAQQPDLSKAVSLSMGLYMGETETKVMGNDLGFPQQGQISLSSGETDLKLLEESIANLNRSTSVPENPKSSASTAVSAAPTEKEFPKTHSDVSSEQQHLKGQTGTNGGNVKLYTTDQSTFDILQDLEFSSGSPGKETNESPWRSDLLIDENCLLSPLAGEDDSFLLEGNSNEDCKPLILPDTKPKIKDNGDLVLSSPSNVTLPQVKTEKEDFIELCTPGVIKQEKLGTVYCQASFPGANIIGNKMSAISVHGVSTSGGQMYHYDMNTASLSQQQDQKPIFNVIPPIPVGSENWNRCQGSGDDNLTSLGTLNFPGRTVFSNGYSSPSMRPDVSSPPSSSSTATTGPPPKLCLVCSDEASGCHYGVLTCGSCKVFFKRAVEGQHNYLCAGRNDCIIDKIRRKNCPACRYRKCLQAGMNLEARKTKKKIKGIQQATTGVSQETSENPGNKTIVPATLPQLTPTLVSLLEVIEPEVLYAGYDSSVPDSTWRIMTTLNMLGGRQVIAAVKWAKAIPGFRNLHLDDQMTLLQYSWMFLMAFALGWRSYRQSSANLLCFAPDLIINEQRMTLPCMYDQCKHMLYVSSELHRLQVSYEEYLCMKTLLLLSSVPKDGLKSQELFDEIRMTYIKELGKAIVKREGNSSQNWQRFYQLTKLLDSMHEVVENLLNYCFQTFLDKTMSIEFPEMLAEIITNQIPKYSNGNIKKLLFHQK

[17] = system: monocyte cell line (THP1); details: read-out: EC50 value in literature; ref Leusch et al., 2014; cited from earlier work
[18] = system: monocyte cell line (THP1); experiment: THP1-cp cytokine production

- EC10 [1]: 0.3 nM
SMILES: C#C[C@]1(O)CC[C@H]2[C@@H]3CCC4=CC(=O)CC[C@@H]4[C@H]3CC[C@@]21CC [Levonorgestrel]

SMILES: N[C@@H](Cc1cc(I)c(Oc2ccc(O)c(I)c2)c(I)c1)C(=O)O [Triiodothyronine]
- EC50 [2]: 0.74 nM
- EC10 ([2]; reference chemical): 0.28 nM
- EC50 [3]: 0.191 nM

SMILES: CCCCCCCCCCCCCC(=O)O[C@@H]1[C@@H](C)[C@@]2(O)[C@@H](C=C(CO)C[C@]3(O)C(=O)C(C)=C[C@@H]23)[C@@H]2C(C)(C)[C@]12OC(C)=O [PMA, Phorbol-12-myristate-13-acetate]
- EC10 (Jurkat cell line): 3 nM
- EC50 (Jurkat cell line): 20 nM

SMILES: Clc1cc2c(cc1Cl)Oc1cc(Cl)c(Cl)cc1O2 [TCDD, 2,3,7,8-TCDD]
- EC50 [4]: 0.0248 nM
- EC10 [5]: 0.00065 nM
- EC50 [5]: 0.008 nM

- EC50 (Nrf2-MDA-MB cells [6]; Homo sapiens): 178000 nM
- EC10 (Nrf2-MDA-MB cells [6]; human): 103000 nM
SMILES: CC(C)(C)c1cc(O)ccc1O [tBHQ, tert-Butylhydroquinone]
- EC50 (Nrf2-Keap-ARE32 pathway): 1320 nM
- EC50 (Nrf2-MDA-MB cells [7]): 46000 nM

SMILES: CN(C)C(=O)Nc1ccc(Cl)c(Cl)c1 [Diuron]
- EC50 (algae photosynthesis [8]; ref Escher et al., 2008a): 12.8 nM
- EC50 (algae photosynthesis [8]; ref Macova et al., 2010): 68.6 nM
- EC50 (algae growth [9]): 25 nM
- EC50 (algae photosynthesis [10]): 6 nM
- EC50 (algae growth [11]): 135 nM

SMILES: CC#C[C@]1(O)CC[C@H]2[C@@H]3CCC4=CC(=O)CCC4=C3[C@@H](c3ccc(N(C)C)cc3)C[C@@]21C [Mifepristone]
- ECSR0.2 [12]: 20 pM

- ECSR0.2 ([14]; 20% suppression): 3.0 nM
- IC50 ([14]; read-out: ECSR0.5, 50% suppression): 8.4 nM
SMILES: O=C(Nc1ccccc1)c1cc([N+](=O)[O-])ccc1Cl [GW9662]
- EC50 [13]: 3.5 nM

SMILES: CO [Methanol]
- EC10 (Caco-2 cells): 0.4 M

- EC10 [15]: 0.11 M
SMILES: C[S+](C)[O-] [DMSO, Dimethylsulfoxide]

SMILES: C[C@@H]1C[C@H]2[C@@H]3CCC4=CC(=O)C=C[C@]4(C)[C@@]3(F)[C@@H](O)C[C@]2(C)[C@@]1(O)C(=O)CO [Dexamethasone]
- EC10 [16]: EC10 (0.5 nM); EC50 (2.6 nM)
- EC50 [17]: 2.7 nM
- EC50 ([18]; Homo sapiens, THP-1): 45 nM
- EC10 ([18]; reference chemical): 2.1 nM
